Measured values: PubChem BioAssay (NCI)
Where “and” joins values, the source holds several entries; their conditions need not be identical. Equal values may be shown once.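 Method: 48-hour compound exposure of cells in 96-well plates, five concentrations, linear interpolation of endpoints. GI50 marks 50% less growth. TGI: concentration producing complete growth inhibition.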

Assays:
Test in all cases: NCI anticancer screen, dose series, 48 h
NCI-H226 lung = system: NCI-H226 lung
HT29 colon = system: HT29 colon
SF-268 CNS = system: SF-268 CNS
OVCAR-8 ovarian = system: OVCAR-8 ovarian
A549 NSCLC = system: A549 NSCLC
HOP-62 NSCLC = system: HOP-62 NSCLC
SNB-75 CNS = system: SNB-75 CNS
MCF7 breast = system: MCF7 breast
HS 578T breast = system: HS 578T breast

SMILES	TGI (NCI-H226 lung) [µM]	TGI (HT29 colon)	TGI (SF-268 CNS)	TGI (OVCAR-8 ovarian)	TGI (A549 NSCLC)	TGI (HOP-62 NSCLC)	TGI (SNB-75 CNS) [µM]	GI50 (NCI-H226 lung) [µM]	GI50 (HT29 colon)	GI50 (SF-268 CNS) [µM]	GI50 (OVCAR-8 ovarian) [µM]	GI50 (A549 NSCLC)	GI50 (HOP-62 NSCLC) [µM]	GI50 (MCF7 breast) [µM]	TGI (MCF7 breast)	GI50 (SNB-75 CNS) [µM]	GI50 (HS 578T breast) [µM]	TGI (HS 578T breast) [µM]
COc1ccc(NC(=O)C(=O)C(C(=O)c2ccccc2)C2OC(=O)c3ccccc32)c([N+](=O)[O-])c1 (stereo not drawn)	> 100	> 100 µM	> 100 µM	> 100 µM	> 100 µM	> 100 µM	> 100											
NC(=O)C(=Cc1ccc(C(O)P(=O)(O)O)cc1)C(N)=O (stereo not drawn)		> 100 µM		> 100 µM	> 100 µM	> 100 µM	> 100											
Cc1[nH]c2ccccc2c1C1Cc2ccccc2N1C(=O)/C=C\C(=O)O (stereo not drawn)	> 100	> 100 µM	68.4 µM		> 100 µM	> 100 µM	> 100											
O=C(Nc1cc(Cl)c(Cl)cc1Cl)C(=O)C1C=CCS1(=O)=O (stereo not drawn)	> 100	> 100 µM	> 100 µM	> 100 µM	> 100 µM	> 100 µM	> 100											
CC(=O)[O-].CC(=O)[O-].[Pt+2].c1cscn1.c1cscn1	> 100	> 100 µM	> 100 µM	71.7 µM	> 100 µM	> 100 µM	> 100	> 100	> 100 µM	> 100	31.3	45.1 µM	> 100	37.3	> 100 µM	> 100	> 100	> 100
Cc1c(NC(=O)C(C)(C)Br)c(=O)oc2c(C)c3occc(=O)c3cc12	71.9	> 100 µM	> 100 µM	> 100 µM	> 100 µM	> 100 µM	> 100											
O=c1c2c(nc3n1CCS3)[nH]c1ccccc12	> 100	> 100 µM	> 100 µM	> 100 µM	> 100 µM	> 100 µM	> 100	70.3	> 100 µM	> 100	> 100	90.1 µM	> 100	> 100	> 100 µM	30.5	73.6	> 100
CC(=O)OCC1OC(N2C(=O)C(=O)c3cc(C)ccc32)C(OC(C)=O)C(OC(C)=O)C1OC(C)=O (stereo not drawn)	> 100	> 100 µM	> 100 µM	> 100 µM	> 100 µM	> 100 µM	> 100											
CCOC(=O)c1cc(C#N)c(=O)n(/N=C(\C)c2ccncc2)c1O	> 100	> 100 µM	> 100 µM	> 100 µM	> 100 µM	> 100 µM		> 100	> 100 µM	> 100	> 100	> 100 µM	> 100	> 100	> 100 µM		> 100	> 100
O=S(=O)(N/N=C/c1ccc(/C=N/NS(=O)(=O)c2ccccc2)cc1)c1ccccc1	> 100	> 100 µM	> 100 µM	> 100 µM	> 100 µM	> 100 µM	> 100											
CCOC(=O)NC(=O)c1cn(CC(=O)NCC(=O)NCC(=O)NCCCN2CCN(CCCNC(=O)CNC(=O)CNC(=O)Cn3cc(C(=O)NC(=O)OCC)c(=O)[nH]c3=O)CC2)c(=O)[nH]c1=O		> 100 µM	> 100 µM	> 100 µM	> 100 µM	> 100 µM	> 100											
CC1=C(C(=O)Nc2ccccc2C)C(c2ccc(Cl)c(Cl)c2)C(C(=O)Nc2ccccc2C)=C(C)N1	43.8	57.7 µM	47.3 µM	> 100 µM	> 100 µM	66.5 µM	> 100											
CCCCCCCCC[C@@H]1CC(=O)OCC2OC(O[C@H](CCCCCCCCC)CC(=O)OCC3OC(O[C@H](CCCCCCCCC)CC(=O)OCC4OC(O1)C(O)C(O)C4O)C(O)C(O)C3O)C(O)C(O)C2O (stereo partly drawn)	24.6	24.3 µM	7.74 µM	28.7 µM	29.4 µM	26.1 µM	22.5											
Cc1cc(C)c([O-])c(CN(C)CCN(C)Cc2cc(C)cc(C)c2[O-])c1.O=C([O-])c1cccc(C(=O)[O-])n1.[Ti+4]	> 100		> 100 µM	> 100 µM	> 100 µM	8.47 µM	5.65	2.35		3.91	2.8	3.18 µM	2.92	3.17	> 100 µM	1.67	2.29	> 100
O=C1c2ccccc2-c2cccc3ccc(Cc4ccc5ccccc5c4)c1c23		> 100 µM	> 100 µM	> 100 µM	> 100 µM	> 100 µM	> 100											
COc1cc(/C=C(\C#N)C(=O)c2ccccc2)ccc1OCc1ccccc1	> 100			> 100 µM	> 100 µM	> 100 µM												
CC[C@@H]1OC2(C)CC(S(=O)(=O)c3ccccc3O)CC1O2 (stereo partly drawn)	> 100		> 100 µM	> 100 µM	> 100 µM	> 100 µM	> 100											

SMILES	TGI (NCI-H226 lung) [µM]	TGI (HT29 colon)	TGI (SF-268 CNS)	TGI (OVCAR-8 ovarian)	TGI (A549 NSCLC)	TGI (HOP-62 NSCLC)	TGI (SNB-75 CNS) [µM]	GI50 (NCI-H226 lung) [µM]	GI50 (HT29 colon)	GI50 (SF-268 CNS) [µM]	GI50 (OVCAR-8 ovarian) [µM]	GI50 (A549 NSCLC)	GI50 (HOP-62 NSCLC) [µM]	GI50 (MCF7 breast) [µM]	TGI (MCF7 breast)	GI50 (SNB-75 CNS) [µM]	GI50 (HS 578T breast) [µM]	TGI (HS 578T breast) [µM]
C=CC1(C(=O)O)CCC(C(C)(C)C)CC1 (stereo not drawn)	> 100	> 100 µM	> 100 µM	> 100 µM	> 100 µM	> 100 µM	> 100											
Cc1c[nH]c2c(O)cc3c(c12)[C@H](CCl)CN3C(=O)c1cc2cc(NC(=O)Nc3ccc4[nH]c(C(=O)N5C[C@@H](CCl)c6c5cc(O)c5[nH]cc(C)c65)cc4c3)ccc2[nH]1	15.9	> 100 µM and 0.00887 µg/mL	58.9 nM and 82.3 µM and 0.00887 µg/mL	16.3 µM and 2e-06 µg/mL and 0.000888 µg/mL	75.5 µM and 0.00228 µg/mL	18.9 µM and 8.9e-07 µg/mL and 0.000888 µg/mL			0.00416 ng/mL			1.31 nM and 0.000888 µg/mL			21.9 µM and 0.00887 µg/mL and 8.88 µg/mL		0.0252	
CC(C)CS(=O)(=O)/C(=C(\c1ccc(Br)cc1)S(=O)(=O)CC(C)C)c1ccc(Br)cc1	> 100	> 100 µM	> 100 µM	> 100 µM	> 100 µM	> 100 µM	> 100											
NNC(=O)/C(=C/c1ccc(Cl)c(Cl)c1)NC(=O)c1ccccc1	> 100	> 100 µM	> 100 µM	> 100 µM	> 100 µM	> 100 µM	> 100											
COc1cc(Cl)c2c3c(c(C(C)=O)oc13)CCC2		> 100 µM		> 100 µM	> 100 µM	> 100 µM	> 100											
CC1C[C@@]2(c3ccccc3)C(=O)CCC[C@H]2N1 (stereo partly drawn)	> 100	> 100 µM	> 100 µM	> 100 µM	> 100 µM	> 100 µM	> 100											
COc1ccc(-c2onc(-c3ccc([N+](=O)[O-])cc3)c2C2=NCCN2)cc1	> 100	> 100 µM	> 100 µM	> 100 µM	> 100 µM	> 100 µM	44											
COc1ccccc1N1C(=O)/C(=C/c2ccc(N(CCC#N)CCC#N)cc2C)N=C1c1cc([N+](=O)[O-])ccc1Cl	> 100	> 100 µM	> 100 µM	> 100 µM	> 100 µM	> 100 µM	> 100											
O=C(/C=C/c1ccc([N+](=O)[O-])o1)N1CCN(Cc2ccccc2)CC1		31.5 µM	29.5 µM	28.4 µM	35.2 µM	34.6 µM	30.4											
COC(=O)c1s/c(=N\C(=S)N(C)C)n(-c2ccccc2)c1C(=O)OC	> 100	> 100 µM	> 100 µM	> 100 µM	> 100 µM	> 100 µM	> 100											
CCCCc1c2c(nc3c1CCC/C3=C\c1ccccc1)C(=O)CCC2	45.3	31.4 µM	44.3 µM	> 100 µM	62 µM	42 µM	84.5											
CCNC(=O)CCN(C(=O)O)S(=O)(=O)c1ccc(NC(=O)c2ccccc2)cc1	> 100	> 100 µM	> 100 µM	> 100 µM	> 100 µM	> 100 µM	> 100											
CCCCOC(=O)NC(=O)c1cn(CCCOC(=O)CCCCCCCCC(=O)OCCCn2cc(C(=O)NC(=O)OCCCC)c(=O)[nH]c2=O)c(=O)[nH]c1=O	> 100	> 100 µM	> 100 µM	> 100 µM	> 100 µM	> 100 µM												
CCOC(=O)C(N)C[S][Sn]([CH3])([CH3])[Cl] (stereo not drawn)	> 100	> 100 µM	> 100 µM	> 100 µM	> 100 µM	> 100 µM	> 100	> 100	> 100 µM	> 100	> 100	> 100 µM	> 100			52.5		
COC(=O)C1C(C(=O)OC)C2(OC)c3ccccc3-c3ccccc3C12 (stereo not drawn)	> 100	> 100 µM	> 100 µM	> 100 µM	> 100 µM	> 100 µM	> 100											
O=C1OC(CC(=O)c2ccc(Cl)c(Cl)c2)C(Cl)=C1Cl (stereo not drawn)	> 100	> 100 µM	> 100 µM	> 100 µM	> 100 µM	> 100 µM	> 100											
